# Measurements taken from article PMC5974090, “A fluorescence anisotropy assay to discover and characterize ligands targeting the maytansine site of tubulin” (Nature Communications, 2018).
# Where two headings read alike, the source gives them in different places.
# Assays:
# tubulin [1] = biological target: T1, tubulin (Bos taurus, UniProt Q6B856); design: method as in Panda et al., Proc Natl Acad Sci USA 95, 9313 (1998); details: exact binding site on tubulin unknown; ref Panda et al., Proc Natl Acad Sci USA 95, 9313 (1998); cited from earlier work
# T1 sequence (Q6B856 whole entry): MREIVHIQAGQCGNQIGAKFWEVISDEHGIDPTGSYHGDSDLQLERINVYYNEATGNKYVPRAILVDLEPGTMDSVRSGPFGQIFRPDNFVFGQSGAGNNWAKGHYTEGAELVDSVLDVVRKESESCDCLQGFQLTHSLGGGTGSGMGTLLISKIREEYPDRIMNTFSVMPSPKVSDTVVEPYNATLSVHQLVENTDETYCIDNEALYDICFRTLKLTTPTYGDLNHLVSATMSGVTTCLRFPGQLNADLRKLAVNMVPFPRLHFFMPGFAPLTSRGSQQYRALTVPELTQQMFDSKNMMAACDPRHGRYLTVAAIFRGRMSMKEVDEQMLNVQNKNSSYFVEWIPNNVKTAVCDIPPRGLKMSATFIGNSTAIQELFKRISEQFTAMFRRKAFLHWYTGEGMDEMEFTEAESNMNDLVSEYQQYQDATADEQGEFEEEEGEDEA
# T1 sequence (P81947 whole entry partner): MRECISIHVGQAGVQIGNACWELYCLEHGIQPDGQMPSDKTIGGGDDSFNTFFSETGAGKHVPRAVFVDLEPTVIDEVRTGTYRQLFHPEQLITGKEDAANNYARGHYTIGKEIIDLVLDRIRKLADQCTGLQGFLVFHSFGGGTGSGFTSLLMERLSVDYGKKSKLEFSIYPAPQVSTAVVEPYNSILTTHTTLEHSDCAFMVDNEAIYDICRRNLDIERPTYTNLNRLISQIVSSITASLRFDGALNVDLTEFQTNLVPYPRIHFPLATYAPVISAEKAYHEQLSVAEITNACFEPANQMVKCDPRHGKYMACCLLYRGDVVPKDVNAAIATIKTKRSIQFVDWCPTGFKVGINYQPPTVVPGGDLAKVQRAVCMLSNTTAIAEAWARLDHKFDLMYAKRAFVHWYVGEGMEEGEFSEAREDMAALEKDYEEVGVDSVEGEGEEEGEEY
# [2] = design: method as in Panda et al., Proc Natl Acad Sci USA 95, 9313 (1998); details: ref Panda et al., Proc Natl Acad Sci USA 95, 9313 (1998); cited from earlier work
# tubulin [3] = biological target: T1, tubulin; experiment: Fluorescence anisotropy titration of FcMaytansine with tubulin (direct binding); details: 25 °C
# Experimental: The binding constant of the fluorescent FcMaytansine probe to tubulin was determined by fluorescence anisotropy titration at 25 °C in black Greiner 384-well, flat-bottom microplates and in a final volume of 50 µL. 10 nM FcMaytansine in assay buffer (15 mM PIPES-KOH, pH 6.8, supplemented with 0.3 mM MgCl2 and 0.2 mM EDTA) was titrated with increasing amounts of tubulin up to 400 nM. The anisotropy and fluorescence values of the free (r = 0.016 ± 0.001, fluorescence = 1 (arbitrary units)) and bound (r = 0.245 ± 0.005, fluorescence = 3.10 ± 0.05 (arbitrary units)) states were determined in the absence and presence of 400 nM tubulin, respectively. The anisotropy was measured using a PHERAstar microplate reader (BMG Labtech) with the fluorescence polarization module. […] The read height and the gain were adjusted automatically. […]
# In order to calculate the binding constant of FcMaytansine and one of a non-fluorescent ligand from a competition experiment, the fractional saturation, νb, of FcMaytansine has to be determined. Binding of FcMaytansine to tubulin was measured through changes in its anisotropy. […]
# In the simplest case of a fluorescent probe with no quantum yield difference between the bound and the free state, the fraction of bound (νb) and free (νf) fluorophore coincides with the fluorescence fractions for the bound and free fluorophore (Fb and Ff, respectively). […]
# cells = system: cells; design: method as in PMID 25826705; details: in vitro cytotoxicity, compound added exogenously; cited from earlier work
# [4] = biological target: maytansine site of tubulin (Bos taurus, UniProt Q6B856); type: binding; details: for Kd: 25 °C, mean ± SEM, n = 3, read-out: Kd from FcMaytansine displacement
# Chain of maytansine site of tubulin (P81947 whole entry): as the sequence (P81947 whole entry partner) above
# Chain of maytansine site of tubulin (Q6B856 whole entry): as the sequence (Q6B856 whole entry) above
# Experimental: Vinblastine and colchicine were used as negative controls. […] The mixture was then incubated with an unlabeled competitor at increasing concentrations prior to anisotropy measurements.
# Fluorescence anisotropy competition experiments and analyses were performed as previously described[34] with minor modifications. Samples containing 10 nM FcMaytansine and 4 nM tubulin in assay buffer were titrated with increasing amounts of a competitor at 25 °C in black Greiner 384-well, flat-bottom microplates and in a final volume of 50 µL. Fluorescence anisotropy measurements were carried out as described above.
# The system was solved using EQUIGRA5[34] using the binding constant of FcMaytansine and a stoichiometry of 1:1 for the tubulin–FcMaytansine complex (EQUIGRA5 can be obtained upon request from Fernando Díaz, fer@cib.csic.es).
# tubulin [5] = biological target: T1, tubulin; design: method as in PMID 20937594; details: reported previously; buffer with 100 mM PIPES; read-out: Kd for the tubulin-maytansine interaction; cited from earlier work
# human cancer cell lines = system: human cancer cell lines; design: method as in Xu et al. 2011; Rothmeier et al. 2010; Paterson et al. 2003; details: large panel of human cancer cell lines; ref Xu et al. 2011; Rothmeier et al. 2010; Paterson et al. 2003; cited from earlier work
# mouse xenograft models = system: mouse xenograft models; design: method as in Xu et al. 2011; Rothmeier et al. 2010; Paterson et al. 2003; details: ref Xu et al. 2011, Rothmeier et al. 2010, Paterson et al. 2003; cited from earlier work
# [6] = 10 nM FcMaytansine, 4 nM tubulin
# [7] = 10 nM FcMaytansine, 4 nM tubulin, increasing competitor concentrations
compound,measurement,setting,value
COc1ccc(C[C@H]2NC(=O)/C=C/C[C@@H]([C@H](C)[C@H]3O[C@@H]3c3ccccc3)OC(=O)[C@H](CC(C)C)OC(=O)C(C)(C)CNC2=O)cc1Cl [Cryptophycin 52],Kd,tubulin [1],47 nM
same,IC50,[2],0.02 nM
COc1cc2cc(c1Cl)N(C)C(=O)CC(OC(=O)CCCCc1cn(CCCNC(=O)c3ccc(C(=O)O)c(-c4c5ccc(=O)cc-5oc5cc(O)ccc45)c3)nn1)C1(C)OC1C(C)C1CC(O)(NC(=O)O1)C(OC)C=CC=C(C)C2 (centres unmarked) [FcMaytansine],Kd,"tubulin [3]; 10 nM FcMaytansine, tubulin 0 to 400 nM, single binding site model, mean ± SEM, n = 5, read-out: dissociation constant, Kd, for the tubulin-FcMaytansine interaction",6.8 ± 0.8 nM
same,binding constant of FcMaytansine to tubulin,"tubulin [3]; stoichiometry 1:1, association constant",1.6 ± 0.3 × 10^8 M^−1
COc1cc2cc(c1Cl)N(C)C(=O)CC(OC(=O)C(C)N(C)C(=O)CCSC1CC(=O)N(CC3CCC(C(=O)NCCCCC(N)C(=O)O)CC3)C1=O)C1(C)OC1C(C)C1CC(O)(NC(=O)O1)C(OC)C=CC=C(C)C2 (centres unmarked) [M9],fold less potent in cellular assays than S-Me DM1,cells,~ 450 fold
C/C=C\C[C@@H](C/C=C\NC(=O)[C@@H](NC(=O)\C=C/C=C\C(C)=C\[C@H](C)[C@@H]1CC=C(OC)C(=O)O1)C(C)(C)C)OC(N)=O [PM060184],Kd,[4]; [6],111 ± 30 nM
same,displacement of FcMaytansine from tubulin,[4]; [7],fully displaced
C/C=C/[C@H](O)C(C)(C(=O)OC)[C@@H]1C\C=C/C=C/C=C/c2nc(co2)C(=O)O[C@H](C(C)(C(=O)OC)[C@@H](O)/C=C/C)C\C=C/C=C/C=C/c2nc(co2)C(=O)O1 (some centres unmarked) [disorazole Z],binding affinity value relative to maytansine and spongistatin,"[4]; times higher Kd than maytansine and spongistatin, rebuttal letter",~ 100 times
COc1cc2cc(c1Cl)N(C)C(=O)C[C@H](OC(=O)[C@H](C)N(C)C(C)=O)[C@]1(C)O[C@H]1[C@H](C)[C@@H]1C[C@@](O)(NC(=O)O1)[C@H](OC)/C=C/C=C(\C)C2 [maytansine],Kd,tubulin [5],~900 nM
CC[C@]1(O)C[C@@H]2CN(CCc3c([nH]c4ccccc34)[C@@](C(=O)OC)(c3cc4c(cc3OC)N(C)[C@H]3[C@@](O)(C(=O)OC)[C@H](OC(C)=O)[C@]5(CC)C=CCN6CC[C@]43[C@@H]65)C2)C1 [vinblastine],displacement of FcMaytansine from tubulin,[4],not
ansamitocin P3,displacement of FcMaytansine from tubulin,[4]; [7],fully displaced
spongistatin-1,Kd,[4]; [6],9.5 ± 1.9 nM
same,antiproliferative activity,human cancer cell lines,single digit picomolar
same,in vivo antitumour activity,mouse xenograft models,antitumour activity
